Results: patent US9676793B2, “Co-crystals of 5-amino-2-oxothiazolo[4,5-d]pyrimidin-3(2H)-yl-5-hydroxymethyl tetrahydrofuran-3-yl acetate and methods for preparing and using the same” (Hoffmann-La Roche Inc., priority 2014, dated 2017)
Read-outs that look alike come from different tables or passages of the source.

Key:
[1] = test system: HBV; assay: microbe, parasite or virus in culture
Procedure: Direct inhibition of viral replication was evaluated by monitoring the levels of secreted HBV DNA and the levels of HBV surface antigen (HBsAg) in cultures containing HBV infected HepaRG cells.
After three days incubation, the combined medium was replaced with differentiation medium and the cells were maintained in the differentiation medium for an additional 2 to 4 weeks. The differentiation medium was renewed every 2 to 3 days throughout the incubation period. Differentiated HepaRG cells (HepaRGd) display hepatocyte-like cell islands surrounded by monolayer of biliary-like cells. Prior to HBV infection and compound treatment, HepaRGd cells were seeded into collagen I coated 96-well plates (Gibco, Cat# A11428-03) at 50,000 to 60,000 cells per well. Cells were allowed to recover their differentiated phenotype in 96-well plates for at least 1 week after plating prior to HBV infection.
HBV inoculum was collected from HepG2.2.15 cultured cells, a cell line that supports HBV (genotype D, strain ayw) replication and virion secretion as disclosed in Sells M A., et al., PNAS, 84(4): 1005-1009. HepG2.2.15 cells were maintained in DMEM+GlutaMAX-I (Invitrogen) containing 1× Pen/Strep (Invitrogen), 10% FBS, and 0.25 mg/ml G-418 (Invitrogen) using hyperflasks (Corning) pre-coated with collagen I (BD Biosciences). Upon reaching confluency, HepG2.2.15 culture media was replaced with DMEM+GlutaMAX-I containing 1× Pen-Strep, 2.5% FBS, and 1% DMSO for 3 days and then replaced with DMEM+GlutaMAX-I containing 1× Pen-Strep and 1% DMSO. The 1% DMSO containing media was collected every 3 to 4 days over a two week period and HBV infectious virions and subviral particles were pelleted by ultracentrifugation through a 20% sucrose cushion in a Ti 45 Beckman rotor at 45,000 rpm for 3 hours at 4° C. The pellets were resuspended in WEM at a concentration of 10^8-10^9 genome equivalents (GE) per ml, determined by real time PCR as described below using a genotype D HBV containing plasmid DNA as an internal standard. To evaluate the infectivity of the inoculum, HepaRGd cells in 96-well plates were infected in differentiation medium containing 50 to 200 GE/cell and 4% PEG 8000 (PolyEthylene Glycol 8000, Sigma, Cat# P5413-500G) for 16 hr at 37° C. At the end of the infection, HBV inoculum was removed and cells were washed 3 times with differentiation medium. Differentiation medium was replenished every 2 to 3 days and HBV replication was monitored by measuring secreted HBV DNA, hepatitis B surface (HBsAg) and/or e (HBeAg) antigens.
HBsAg was detected from 50 μL of HBV infected HepaRG supernatants using the HBsAg chemiluminescence immunoassay (CLIA) kit following instructions as recommended by the manufacturer (Autobio Diagnostics Co., Zhengzhou, China). HBV DNA was extracted from 50 μL of HBV infected HepaRGd supernatants using the MagNA Pure 96 DNA and Viral NA Small Volume Kit (Roche, Cat#05 467 497 001). […] All PCR reactions were performed using the ViiA7 Real Time PCR system (Life Technologies).
Both direct and indirect inhibitory activity of HBV replication was measured. […] Aliquots of these reagents were added to independent wells of a 96-well culture plate containing HBV infected HepaRGd cells on day 4 post infection. The final concentration of DMSO in each well was 2%. The HepaRGd cells used in the inhibition study were maintained in differentiation media containing 2% DMSO.

[2] = test system: HBV; assay: Indirect inhibition of HBV replication by conditioned media from stimulated PBMCs; format: cell-based, HBV (genotype D, strain ayw)
Procedure: TLR-7 agonists stimulate the production cytokines and chemokines from human PBMC's. Conditioned medium was obtained by contacting cultured PBMC's with DMSO (control) or 100 μM R06871765 (drug) was contacted with HBV infected HepaRGd cells.
HBV infected HepaRGd cells were incubated with various dilutions of conditioned media collected from PBMCs isolated from healthy donors—donor 70615 (graphs A-D) and donor 77726 (graphs E, F). The PBMC's from each donor were stimulated with either DMSO (graphs A, C, E) or 100 μM R06871765 (graphs B, D, F). […] Three experiments were performed. In the first experiment (FIGS. 4A, 4B), conditioned media from PBMCs (donor 70615) was first diluted 10-fold using differentiation media, and then serially diluted in 3-fold increments prior to addition of each of the diluted conditioned medium to HBV infected HepaRGd cells. In the second experiment (FIGS. 4C, 4D), conditioned media from PBMCs (donor 70615) was first diluted 5-fold using differentiation media, and then serially diluted in 5-fold increments prior to addition to HBV infected HepaRGd cells. In the third experiment (FIGS. 4E, 4F), conditioned media from PBMCs (donor 77726) was first diluted 5-fold using differentiation media, and then serially diluted in 5-fold increments prior to addition to HBV infected HepaRGd cells. The HBV replication inhibitory activity for control and R06871765 treated cells was determined by monitoring the levels of HBV DNA and HBsAg secreted in culture medium.

[3] = conditioned media of PBMCs stimulated with 100 μM
[4] = conditioned media of PBMCs stimulated with 100 μM, Feb. 28, 2013 donor 77726
[5] = conditioned media of PBMCs stimulated with 100 μM, Jan. 3, 2013 donor 70615
[6] = conditioned media of PBMCs stimulated with 100 μM, Nov. 12, 2012 donor 70615
[7] = stimulated PBMC conditioned media

Nc1nc2c(sc(=O)n2[C@@H]2O[C@H](CO)C[C@H]2O)c(=O)[nH]1 [R06871765]
EC50 ([1]; Hepatitis B virus, 168 h, read-out: EC50 (HBV DNA or HBsAg)): > 200 µM
CC50 ([1]; Hepatitis B virus, read-out: EC/CC50 (μM), HBV DNA): > 200 µM
CC50 ([1]; Hepatitis B virus, read-out: EC/CC50 (μM), HBsAg): > 200 µM
inhibition at 0.82 µM ([1]; Hepatitis B virus, read-out: HBV DNA (% inhibition), 0.82 μM, EXP ID 10/15/2012 AL): -1.24%
inhibition at 0.82 µM ([1]; Hepatitis B virus, read-out: HBV DNA (% inhibition), 0.82 μM, EXP ID 11/1/2012): 12.2%
inhibition at 2.47 µM ([1]; Hepatitis B virus, read-out: HBV DNA (% inhibition), 2.47 μM, EXP ID 10/15/2012 AL): -16%
inhibition at 2.47 µM ([1]; Hepatitis B virus, read-out: HBV DNA (% inhibition), 2.47 μM, EXP ID 11/1/2012): -0.77%
inhibition at 7.41 µM ([1]; Hepatitis B virus, read-out: HBV DNA (% inhibition), 7.41 μM, EXP ID 10/15/2012 AL): -17.4%
inhibition at 7.41 µM ([1]; Hepatitis B virus, read-out: HBV DNA (% inhibition), 7.41 μM, EXP ID 11/1/2012): -23.5%
inhibition at 22.22 µM ([1]; Hepatitis B virus, read-out: HBV DNA (% inhibition), 22.22 μM, EXP ID 10/15/2012 AL): 4.96%
inhibition at 22.22 µM ([1]; Hepatitis B virus, read-out: HBV DNA (% inhibition), 22.22 μM, EXP ID 11/1/2012): 5.69%
inhibition at 66.67 µM ([1]; Hepatitis B virus, read-out: HBV DNA (% inhibition), 66.67 μM, EXP ID 10/15/2012 AL): -0.65%
inhibition at 66.67 µM ([1]; Hepatitis B virus, read-out: HBV DNA (% inhibition), 66.67 μM, EXP ID 11/1/2012): 21.1%
inhibition at 200 µM ([1]; Hepatitis B virus, read-out: HBV DNA (% inhibition), 200 μM, EXP ID 10/15/2012 AL): 12.2%
inhibition at 200 µM ([1]; Hepatitis B virus, read-out: HBV DNA (% inhibition), 200 μM, EXP ID 11/1/2012): 3.11%
inhibition at 0.82 µM ([1]; Hepatitis B virus, read-out: HBsAg (% inhibition), 0.82 μM, EXP ID 10/15/2012 AL): 10.5%
inhibition at 0.82 µM ([1]; Hepatitis B virus, read-out: HBsAg (% inhibition), 0.82 μM, EXP ID 10/15/2012 VL): 14.7%
inhibition at 0.82 µM ([1]; Hepatitis B virus, read-out: HBsAg (% inhibition), 0.82 μM, EXP ID 11/1/2012): 14.8%
inhibition at 2.47 µM ([1]; Hepatitis B virus, read-out: HBsAg (% inhibition), 2.47 μM, EXP ID 10/15/2012 AL): -4.7%
inhibition at 2.47 µM ([1]; Hepatitis B virus, read-out: HBsAg (% inhibition), 2.47 μM, EXP ID 10/15/2012 VL): 11.8%
inhibition at 2.47 µM ([1]; Hepatitis B virus, read-out: HBsAg (% inhibition), 2.47 μM, EXP ID 11/1/2012): 14.7%
inhibition at 7.41 µM ([1]; Hepatitis B virus, read-out: HBsAg (% inhibition), 7.41 μM, EXP ID 10/15/2012 AL): -11.7%
inhibition at 7.41 µM ([1]; Hepatitis B virus, read-out: HBsAg (% inhibition), 7.41 μM, EXP ID 10/15/2012 VL): 3.92%
inhibition at 7.41 µM ([1]; Hepatitis B virus, read-out: HBsAg (% inhibition), 7.41 μM, EXP ID 11/1/2012): 1.81%
inhibition at 22.22 µM ([1]; Hepatitis B virus, read-out: HBsAg (% inhibition), 22.22 μM, EXP ID 10/15/2012 AL): 0.44%
inhibition at 22.22 µM ([1]; Hepatitis B virus, read-out: HBsAg (% inhibition), 22.22 μM, EXP ID 10/15/2012 VL): 3.98%
inhibition at 22.22 µM ([1]; Hepatitis B virus, read-out: HBsAg (% inhibition), 22.22 μM, EXP ID 11/1/2012): 0.66%
inhibition at 66.67 µM ([1]; Hepatitis B virus, read-out: HBsAg (% inhibition), 66.67 μM, EXP ID 10/15/2012 AL): -2.13%
inhibition at 66.67 µM ([1]; Hepatitis B virus, read-out: HBsAg (% inhibition), 66.67 μM, EXP ID 10/15/2012 VL): 14.5%
inhibition at 66.67 µM ([1]; Hepatitis B virus, read-out: HBsAg (% inhibition), 66.67 μM, EXP ID 11/1/2012): 5.02%
inhibition at 200 µM ([1]; Hepatitis B virus, read-out: HBsAg (% inhibition), 200 μM, EXP ID 10/15/2012 AL): 2.48%
inhibition at 200 µM ([1]; Hepatitis B virus, read-out: HBsAg (% inhibition), 200 μM, EXP ID 10/15/2012 VL): 4.25%
inhibition at 200 µM ([1]; Hepatitis B virus, read-out: HBsAg (% inhibition), 200 μM, EXP ID 11/1/2012): 16%
direct inhibition of HBV viral replication ([1]; cultured HepaRG cells): did not exert any direct anti-HBV effect
CC50 ([1]; read-out: EC/CC50 (μM), HBV DNA, EXP ID 11/1/2012): > 200 µM
CC50 ([1]; read-out: EC/CC50 (μM), HBsAg, EXP ID 10/15/2012 VL): > 200 µM
CC50 ([1]; read-out: EC/CC50 (μM), HBsAg, EXP ID 11/1/2012): > 200 µM
EC50 converted fold dilution, HBV DNA secretion [2, 3]: 318 fold dilution
EC50 converted fold dilution, HBsAg secretion [2, 3]: 16 fold dilution
EC50 [log dilution], HBV DNA secretion [2, 4]: −2.1 log dilution
EC50 [log dilution], HBsAg secretion [2, 4]: −1.0 log dilution
EC50 [log dilution], HBV DNA secretion [2, 5]: −2.9 log dilution
EC50 [log dilution], HBsAg secretion [2, 5]: −1.4 log dilution
EC50 [log dilution], HBV DNA secretion [2, 6]: −2.5 log dilution
EC50 [log dilution], HBsAg secretion [2, 6]: <−1.0 log dilution
EC50 [log dilution], HBsAg secretion, Ave ± SD ([2]; conditioned media of PBMCs stimulated with 100 μM, average): −1.2 log dilution
EC50 [log dilution], HBV DNA secretion, Ave ± SD ([2]; conditioned media of PBMCs stimulated with 100 μM, average of three experiments): −2.5 ± 0.4 log dilution
average EC50 against HBV DNA [2, 7]: −2.5±0.4 log10
average EC50 against HBV surface antigen (HBsAg) secretion [2, 7]: −1.2 log10
